Like-named read-outs stand apart in the source and are kept apart here.
Assays:
DLD-1 colon xenografts = tested on: DLD-1 colon xenografts
Procedure: Female NCr nude mice were injected intravenously (q7dx3) via the lateral tail vein on days indicated by an asterisk (*). […] Irinotecan (⋄) was prepared in saline and injected iv (q4dx3) at a dose of 90 mg/kg/dose. Drug-to-lipid ratio was 0.3/1 (w/w). Data points represent median tumor volume (n=6).
The anti-tumor activity of multiple (q7d3) dose schedules of liposomal vinorelbine was evaluated in several human xenograft tumor models. The goal of this series of studies was to identify the benefits of encapsulation by evaluating a series of doses and determining the therapeutic index in several xenograft models. Models were selected based on the following criteria: (1) activity in the single dose studies, (2) a comprehensive literature review of vinca alkaloid efficacy, (3) a desire to include at least 2-3 models that represent the clinical use of vinorelbine, and (4) a desire to include models with a range of sensitivity to vinorelbine so that improvements resulting from the use of the liposome formulation might be identified. Based on these criteria, MX-1 and MDA-MB-435 breast models, the NCl-H460 NSCLC model and the HT-29 and DLD-1 colon models were chosen.
Therapeutic index (TI) is a parameter that quantifies the “safety factor” of a particular therapy. TI is a ratio of a toxicity parameter and a biological activity parameter. Therefore, a higher ratio represents a greater potential margin of safety. For these studies, TI is defined as follows: […]
The minimal effective dose (MED) was set according to NCl activity criteria as the dose resulting in an optimal % T/C of 40. This information was derived from Table 7.

[1] = tested on: LX-1 small cell lung xenografts; assay: Single dose anti-tumor activity, LX-1 small cell lung xenograft; type: in vivo
Procedure: (§1) Female NCr nude mice were injected intravenously via the lateral tail vein on day 11 post-tumor-implantation with saline (♦), NVB at 25.5 mg/kg (◯), or NVB-TCS at 15.0 mg/kg (●) and 11.0 mg/kg (▪) at a drug-to-lipid ratio of 0.3:1 (w/w). The arrow on the x-axis denotes the day of drug administration. Data points represent mean±SEM (n=7).
Vinorelbine is used clinically in the treatment of advanced NSCLC and metastatic breast cancer.
(§2) Tumor models investigated included RXF393 (renal), MX-1 (breast), LX-1 (small cell lung cancer), PC-3 (prostate), and HT29 (colon). These models were known to be sensitive to vinorelbine. Tumor fragments were implanted subcutaneously in the flank of NCr nu/nu mice. […] Animal weights and tumor size were determined twice weekly.

[2] = cited from earlier work
RXF393 renal xenografts = assay: Single dose anti-tumor activity, RXF393 renal xenograft; type: in vivo; settings: RXF-393
Procedure: as §1, with “Male NCr” for “Female NCr”, “day 7” for “day 11”, “at 45.0” for “at 25.5”, “mg/kg (◯) and 34.0 mg/kg (□),” for “mg/kg (◯),”, “mean±SEM (n=10). […]” for “mean±SEM (n=7).”
as §2

[3] = Maximum tolerable dose (MTD) of free and liposomal vinorelbine; type: in vivo, nude and ICR mice
[4] = mice; cited from earlier work
[5] = for DRD: ICR
Procedure: Single and multiple (q7dx3) dose MTD studies were performed in tumor-bearing and non-tumor bearing NCr nu/nu mice, as well as healthy, outbred ICR mice.
A comparative (VRL vs. liposomal VRL) toxicity study was performed in healthy, outbred ICR mice.
Parameters evaluated throughout the study included animal weight loss, physical appearance and behavioral changes, blood analysis (CBC and serum chemistry panel), hematopoietic progenitor cell levels in femur bone marrow, and organ weights and gross pathology. Tissues were collected and stored for histology as required.

[6] = clinical hematological toxicity

CCC1=C[C@@H]2CN(C1)Cc1c([nH]c3ccccc13)[C@@](C(=O)OC)(c1cc3c(cc1OC)N(C)[C@H]1[C@@](O)(C(=O)OC)[C@H](OC(C)=O)[C@]4(CC)C=CCN5CC[C@]31[C@@H]54)C2 [VRL, 5′-noranhydrovinblastine]
% T/C (optimal % T/C following final treatment) (DLD-1 colon xenografts; 5 mg/kg i.v. q7dx3): 88%
DRD (drug related deaths, n = 6) (DLD-1 colon xenografts; 5 mg/kg i.v. q7dx3): 0
NCI Score (DLD-1 colon xenografts; 5 mg/kg i.v. q7dx3): 0
T-C (tumor growth delay to 1000 mm^3) (DLD-1 colon xenografts; 5 mg/kg i.v. q7dx3): 0.0
TF (tumor free animals at the end of study) (DLD-1 colon xenografts; 5 mg/kg i.v. q7dx3, n=6): 0
% T/C (optimal % T/C following final treatment) (DLD-1 colon xenografts; 10 mg/kg i.v. q7dx3): 58%
DRD (drug related deaths, n = 6) (DLD-1 colon xenografts; 10 mg/kg i.v. q7dx3): 0
NCI Score (DLD-1 colon xenografts; 10 mg/kg i.v. q7dx3): 0
T-C (tumor growth delay to 1000 mm^3) (DLD-1 colon xenografts; 10 mg/kg i.v. q7dx3): 4.7
TF (tumor free animals at the end of study) (DLD-1 colon xenografts; 10 mg/kg i.v. q7dx3, n=6): 0
% T/C (optimal % T/C following final treatment) (DLD-1 colon xenografts; 20 mg/kg i.v. q7dx3): −36%
DRD (drug related deaths, n = 6) (DLD-1 colon xenografts; 20 mg/kg i.v. q7dx3): 0
NCI Score (DLD-1 colon xenografts; 20 mg/kg i.v. q7dx3): 2
T-C (tumor growth delay to 1000 mm^3) (DLD-1 colon xenografts; 20 mg/kg i.v. q7dx3): 19.7
TF (tumor free animals at the end of study) (DLD-1 colon xenografts; 20 mg/kg i.v. q7dx3, n=6): 0
% T/C (optimal % T/C following final treatment) (DLD-1 colon xenografts; 30 mg/kg i.v. q7dx3): −100%
DRD (drug related deaths, n = 6) (DLD-1 colon xenografts; 30 mg/kg i.v. q7dx3): 2
NCI Score (DLD-1 colon xenografts; 30 mg/kg i.v. q7dx3): 3
T-C (tumor growth delay to 1000 mm^3) (DLD-1 colon xenografts; 30 mg/kg i.v. q7dx3): 26.4
TF (tumor free animals at the end of study) (DLD-1 colon xenografts; 30 mg/kg i.v. q7dx3, n=6): 0
% T/C (optimal % T/C following final treatment) ([1]; single i.v. dose 25.5 mg/kg): 23%
DRD (drug related deaths) ([1]; single i.v. dose 25.5 mg/kg): 0/6
NCI Score ([1]; single i.v. dose 25.5 mg/kg): 1
T-C (tumor growth delay to 1000 mm^3) ([1]; single i.v. dose 25.5 mg/kg): 7
TF (tumor free animals at the end of study) ([1]; single i.v. dose 25.5 mg/kg): 0/6
% T/C (optimal % T/C following final treatment) ([1]; single i.v. dose 34 mg/kg): Toxic
DRD (drug related deaths) ([1]; single i.v. dose 34 mg/kg): 7/7
% T/C (optimal % T/C following final treatment) ([1]; single i.v. dose 45 mg/kg): Toxic
DRD (drug related deaths) ([1]; single i.v. dose 45 mg/kg): 7/7
anemia [2, 6]: 83%
leukopenia [2, 6]: 92%
thrombocytopenia [2, 6]: 5%
Peripheral neuropathy ([2]; clinical): 25%
phlebitis ([2]; clinical): 7%
% T/C (optimal % T/C following final treatment) (RXF393 renal xenografts; single i.v. dose 34 mg/kg): −6%
DRD (drug related deaths) (RXF393 renal xenografts; single i.v. dose 34 mg/kg): 2/10
MWL (maximum mean weight loss per treatment group) (RXF393 renal xenografts; single i.v. dose 34 mg/kg): −23.1
NCI Score (RXF393 renal xenografts; single i.v. dose 34 mg/kg): 2
T-C (tumor growth delay to 1000 mm^3) (RXF393 renal xenografts; single i.v. dose 34 mg/kg): 22
TF (tumor free animals at the end of study) (RXF393 renal xenografts; single i.v. dose 34 mg/kg): 2/8
% T/C (optimal % T/C following final treatment) (RXF393 renal xenografts; single i.v. dose 45 mg/kg): Toxic
DRD (drug related deaths) (RXF393 renal xenografts; single i.v. dose 45 mg/kg): 9/10
MWL (maximum mean weight loss per treatment group) (RXF393 renal xenografts; single i.v. dose 45 mg/kg): −24.6
TF (tumor free animals at the end of study) (RXF393 renal xenografts; single i.v. dose 45 mg/kg): 0/1
MTD ([3]; NCr nu/nu and ICR, mouse, in vivo, intravenous, q7dx3 dose schedule, estimated, read-out: maximum tolerated dose (MTD)): 25 to 30 mg/kg
MTD ([3]; NCr nu/nu and ICR, mouse, in vivo, single dose, estimated, read-out: maximum tolerated dose (MTD)): 30 mg/kg
MTD ([3]; given intravenously on a q7dx3 schedule): 27.5 mg/kg/dose
MTD used in the calculation of therapeutic index (TI) ([3]; q7dx3, derived from Table 5): 27.5 mg/kg
published LD50 [4]: 34 mg/kg
DRD ([5]; 5 mg/kg q7d x 3): 0/15
DRD ([5]; 10 mg/kg q7d x 3): 0/15
DRD ([5]; 20 mg/kg q7d x 3): 0/15
DRD ([5]; 25 mg/kg q7d x 3): 1/15
Granulocytopenia ([5]; mouse, in vivo): significant
neutrophil population ([5]; mouse, in vivo): almost completely abolished
spleen weights ([5]; mouse, in vivo): Decreased spleen weights
Max % Wt Loss ([5]; mouse, in vivo, 5 mg/kg): +
Max % Wt Loss ([5]; mouse, in vivo, 10 mg/kg): −3%
Max % Wt Loss ([5]; mouse, in vivo, 20 mg/kg): −3%
Max % Wt Loss ([5]; mouse, in vivo, 25 mg/kg): −5%

Source: patent US20040071768A1, “Compositions and methods for treating cancer” (Inex Pharmaceuticals Corporation, priority 1999, published 2004)
